# “Also recorded” adds a separate entry of the source. Bridge positions count the residues as written; N and C are the ends. Ends that are not written are not given here. Peptide text beside a SMILES is read from it. I, II: the chains in the order shown.
# Experiments:
# human NOP [1] = target: T1, human NOP (Homo sapiens, UniProt P41146); experiment: Calcium mobilization assay, CHO cells with NOP receptor and chimeric G protein; type: cell-based; parameters: expressed in transfected cells
# Experimental: Chinese hamster ovary (CHO) cells stably coexpressing the human NOP, μ, or κ opioid receptors and the Gαqi5 protein or the human δ and the GαqG66Di5 protein were used in this assay. , Cells were cultured in DMEM/F-12 (1:1) medium supplemented with 10% FBS, 2 mM L-glutamine, […], 100 IU/mL penicillin, and 100 IU/mL streptomycin. Cells were maintained at 37 °C in a humidified atmosphere with 5% CO2 and were seeded at 50 000 cells/well into 96-well black, clear-bottom plates 24 h before test. Loading for 45 min with a solution consisting of HBSS supplemented with 2.5 mM probenecid, 3 μM Fluo-4 AM, and 0.01% pluronic acid ensures the calcium-sensitive dye (Fluo-4) reaches the needed concentration inside the cell, while the exchange of the solution with 100 μL/well of buffer consisting of HBSS with 20 mM HEPES, 2.5 mM probenecid, and 500 μM Brilliant Black allows for fluorescence background to decrease. Serial dilutions of ligands were prepared in HBSS buffer with 20 mM HEPES and 0.02% bovine serum albumin (BSA) to minimize the ligands’ stickiness to plasticware. The automated microplate reader FlexStation II (Molecular Devices, CA, US) was employed at 37 °C to detect changes in fluorescence intensity. The effects of all compounds were expressed as the maximum change in percentage over the baseline fluorescence measured in samples treated with vehicles.
# (§1) Concentration-response curves to agonists were analyzed by a four-parameter logistic nonlinear regression model: Effect = baseline + (E max – baseline)/(1 + 10^((logEC50–log[ligand])slope)). […] Experimental data were expressed as mean ± sem of at least 5 experiments. Potency values were expressed as the mean and CL95%. In vitro E max values were analyzed by one-way ANOVA, while in vivo latency data were evaluated by one-way ANOVA followed by Dunnett’s post hoc test. The proportion of mice losing the righting reflex was compared by Fisher’s exact test performed on raw data. GraphPad Prism 10.0 software was used for all of the analyses. The terminology employed is consistent with the International Union of Basic and Clinical Pharmacology (IUPHAR) recommendations. ,
# human NOP [2] = target: T1, human NOP; experiment: NOP receptor–G protein interaction BRET assay; type: biochemical; parameters: expressed in transfected cells; host or cells: membranes of HEK293 cells stably coexpressing NOP-RLuc and Gβ1-RGFP; conditions: N = 5 experiments in duplicate
# Experimental: A BRET interaction assay was used, as previously detailed in ref , to study the propensity of ligands to evoke interaction between the NOP receptor and to G protein. Membranes taken from HEK293 cells stably coexpressing the fusoproteins NOP-RLuc and Gβ1-RGFP were used. Such cells were grown in DMEM medium supplemented with 10% FBS, 2 mM L-glutamine, […] G418, […] hygromycin B, 100 IU/mL penicillin, and 100 IU/mL streptomycin in a humidified atmosphere with 5% CO2 at 37 °C. Cell membranes were thawed and resuspended in PBS supplemented with 0.01% BSA before the assay, and an amount of 3 μg of total protein was dispensed in each of the 96 wells together with 2 μM Prolume Purple Coelenterazine. All experiments were carried out at room temperature. Ligands were added, and averaged BRET ratios from 10 min measurements were computed. BRET ratios were computed as counts per second (CPS) obtained on a Victor Nivo (PerkinElmer) with 405 (10) nm and 510 (30) nm bandpass filters. Vehicles’ BRET ratios were derived from light passed through 510 divided by that passed through 405 filters. Vehicles BRET values were subtracted from all computations, and data sets were normalized as a fraction of N/OFQ maximal effects.
# as §1
# sleep in rats = conditions: reported in the literature, ref not given; cited from earlier work
# [3] = test system: mouse vas deferens from NOP(+/+) mice; experiment: Electrically stimulated mouse vas deferens bioassay, NOP(+/+) tissues; conditions: for potency (pEC50) for inhibition of electrically induced contractions / maximal inhibition of electrically induced contractions: mVD from CD-1 NOP(+/+) mice, 5 experiments; for potency (pEC50) for inhibition of electrically induced contractions: 33 °C, mean (CL95%); for maximal inhibition of electrically induced contractions: mean ± sem
# Experimental: (§2) This study was approved by the Animal Welfare Body of the University of Ferrara and by the Italian Ministry of Health (authorization number CBCC2.N.BXI). Experiments were performed on an isolated mouse vas deferens. All experiments were conducted with mice bred and housed in the University of Ferrara’s animal facility under specific pathogen-free conditions (SPF). All mice were housed in cages with individual ventilation, with a constant temperature of 21 °C, 60% humidity, and a 12 h light/dark cycle. Food and water were provided ad libitum. CD-1 NOP(+/+) and CD-1 NOP(−/−) male mice, aged 9 to 12 months, were used. Animals were sacrificed on the day of the experiment with CO2 overdose. Bioassay experiments were performed as previously described. The tissues were suspended in 5 mL organ bath containing Krebs solution (NaCl 118.5 […]). The Krebs solution was oxygenated with 95% O2 and 5% CO2 and the temperature set at 33 °C with a resting tension of 0.3 g applied to the tissues. Tissues were stimulated through two platinum electrodes with a supramaximal rectangular pulse of 1 ms duration, 0.05 Hz frequency, and 80 V of amplitude. The electrically evoked contractions were measured isotonically by means of Basile strain gauge transducers (Basile, IT) and a recorder with a Power Lab 8 instrument (ADInstruments, CO, U.S.). Following an equilibration period of approximately 60 min, the contractions induced by electrical field stimulation were stable. At this time, cumulative concentration response curves were carried out.
# as §1
# [4] = test system: mouse vas deferens from NOP(−/−) mice; experiment: Electrically stimulated mouse vas deferens bioassay, NOP(−/−) tissues; conditions: mVD from CD-1 NOP(−/−) mice; 5 experiments
# Experimental: as §2
# Concentration-response curves to agonists were analyzed by a four-parameter logistic nonlinear regression model: Effect = baseline + (E max – baseline)/(1 + 10^((logEC50–log[ligand])slope)). […] Experimental data were expressed as mean ± sem of at least 5 experiments. Potency values were expressed as the mean and CL95%. In vitro E max values were analyzed by one-way ANOVA, while in vivo latency data were evaluated by one-way ANOVA followed by Dunnett’s post hoc test. […]
# [5] = target: murine NOP receptor (mouse (endogenous in mouse vas deferens)) (UniProt P35377)
# murine NOP receptor (mouse (endogenous in mouse vas deferens)), sequence (P35377 whole entry): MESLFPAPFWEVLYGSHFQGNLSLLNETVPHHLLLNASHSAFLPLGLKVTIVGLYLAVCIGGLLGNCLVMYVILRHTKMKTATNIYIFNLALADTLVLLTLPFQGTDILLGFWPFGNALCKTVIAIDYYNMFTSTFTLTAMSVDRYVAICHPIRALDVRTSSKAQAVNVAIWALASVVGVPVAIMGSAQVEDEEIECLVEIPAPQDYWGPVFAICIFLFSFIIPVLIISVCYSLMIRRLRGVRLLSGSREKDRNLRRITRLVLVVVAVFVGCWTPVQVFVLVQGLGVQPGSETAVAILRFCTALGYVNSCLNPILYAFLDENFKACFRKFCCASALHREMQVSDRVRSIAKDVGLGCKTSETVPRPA
# [6] = test system: loss of the righting reflex (RR) in mice; experiment: Loss of the righting reflex assay in mice; type: in vivo, mouse; conditions: 10 nmol, icv
# Experimental: All of the experimental procedures adopted in the in vivo studies comply with the European Directive 2010/63/EU on protecting animals used for scientific purposes and Italian Legislative Decree no. 26 of March 4, 2014. These experiments were approved by the Animal Welfare Body of the University of Ferrara and by the Ministry of Health (authorization number 677/2024-PR). In vivo studies have been reported following ARRIVE guidelines. All experiments were conducted with mice bred and housed in the University of Ferrara’s animal facility under specific pathogen-free conditions. All mice were housed in cages with individual ventilation, with a constant temperature of 21 °C, 60% humidity, and a 12 h light/dark cycle. Food and water were provided ad libitum. CD-1 male and female mice, aged 2 to 4 months, were used. Details about the generation of NOP(−/−) and NOP(+/+) mice have been published previously; , these mice have been backcrossed on CD-1 strain in our laboratories. NOP(+/+) and NOP(−/−) littermates were obtained by mating with NOP(±) mice. All mice were genotyped using the polymerase chain reaction previously described. All mice were used only once. The RR assay was performed as previously described. […] Diazepam 15 mg/kg was injected ip. When the animals lost RR, they were placed in a plastic cage, and the time was recorded by an expert observer, blind to drug treatments and/or genotype. Animals were judged to have regained the RR response when they could correct themselves three times within 30 s. Sleeping time is defined as the amount of time between the loss and regaining of the RR; it was rounded to the nearest minute.
# as §1
# NOP-RLuc = NOP-RLuc (UniProt P41146)
# NOP-RLuc, sequence (P41146 whole entry): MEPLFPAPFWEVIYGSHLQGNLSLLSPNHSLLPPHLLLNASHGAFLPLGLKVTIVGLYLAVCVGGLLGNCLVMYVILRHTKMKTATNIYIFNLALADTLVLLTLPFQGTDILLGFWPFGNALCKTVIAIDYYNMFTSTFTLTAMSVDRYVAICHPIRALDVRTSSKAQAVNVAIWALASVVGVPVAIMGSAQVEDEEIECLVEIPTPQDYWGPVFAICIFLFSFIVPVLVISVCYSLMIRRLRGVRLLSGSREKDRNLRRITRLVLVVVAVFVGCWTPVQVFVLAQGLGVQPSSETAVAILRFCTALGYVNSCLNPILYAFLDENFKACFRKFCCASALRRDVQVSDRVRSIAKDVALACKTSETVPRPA
# [7] = target: human nociceptin/orphanin FQ (N/OFQ) peptide receptor (human) (UniProt P41146)
# human nociceptin/orphanin FQ (N/OFQ) peptide receptor (human), sequence (P41146 whole entry): as above
# T1 sequence (P41146 whole entry): as above
molecule,measurement,setting,value
"CC(C)C[C@H](NC(=O)[C@H](CCCCN)NC(=O)[C@H](CCCNC(=N)N)NC(=O)[C@H](C)NC(=O)[C@H](CO)NC(=O)[C@H](CCCCN)NC(=O)[C@H](CCCNC(=N)N)NC(=O)[C@H](C)NC(=O)CNC(=O)[C@@H](NC(=O)[C@H](Cc1ccccc1)NC(=O)CNC(=O)CNC(=O)[C@@H](N)Cc1ccccc1)[C@@H](C)O)C(=O)N[C@@H](C)C(=O)N[C@@H](CSSC[C@H](NC(=O)[C@H](C)NC(=O)[C@H](CC(C)C)NC(=O)[C@H](CCCCN)NC(=O)[C@H](CCCNC(=N)N)NC(=O)[C@H](C)NC(=O)[C@H](CO)NC(=O)[C@H](CCCCN)NC(=O)[C@H](CCCNC(=N)N)NC(=O)[C@H](C)NC(=O)CNC(=O)[C@@H](NC(=O)[C@H](Cc1ccccc1)NC(=O)CNC(=O)CNC(=O)[C@@H](N)Cc1ccccc1)[C@@H](C)O)C(=O)N[C@@H](CCC(N)=O)C(N)=O)C(=O)N[C@@H](CCC(N)=O)C(N)=O [1j, [[Cys^16]N/OFQ-NH2]2] (I: H-FGGFTGARKSARKLACQ-NH2 / II: H-FGGFTGARKSARKLACQ-NH2; disulfide I:16-II:16)",EC50,"human NOP [1]; CHO cells coexpressing human NOP and Gαqi5, Fluo-4, 37 °C, mean (CL95%), N = 5 experiments in duplicate, read-out: Ca^2+ mobilization pEC50 (CL95%) (converted)",1.38 nM
same,Ca^2+ mobilization E max ± sem,"human NOP [1]; CHO cells coexpressing human NOP and Gαqi5, maximum change in percentage over baseline fluorescence, mean ± sem, N = 5 in duplicate",312 ± 38 % over the baseline
same,NOP–G protein interaction E max ± sem,"human NOP [2]; effects normalized to N/OFQ-NH2 (E max = 1), mean ± sem",0.98 ± 0.02
same,EC50,"human NOP [2]; membranes from HEK293 cells coexpressing NOP-RLuc and Gβ1-RGFP, room temperature, mean (CL95%), read-out: NOP–G protein interaction pEC50 (CL95%) (converted)",0.174 nM
O=C1NCN(c2ccccc2)C12CCN([C@@H]1CC[C@H]3CCCc4cccc1c43)CC2 [Ro 64-6198],induced sleep at EEG recordings,sleep in rats,3 to 5 h
O=C(O)c1nc2ccccc2n([C@@H]2C[C@H]3CCC[C@@H](C2)N3C2C[C@H]3CCC[C@@H](C2)C3)c1=O (stereo partly shown) [Sunobinop],induced sleep at EEG recordings,sleep in rats,3 to 5 h
"[D-Pen^2,D-Pen^5]enkephalin [DPDPE]",potency (pEC50) for inhibition of electrically induced contractions,[3],7.72 (7.45–7.99)
same,maximal inhibition of electrically induced contractions,[3],86 ± 6%
same,effect in mVD tissues from NOP(−/−) mice (in words),[4],superimposable
nociceptin/orphanin FQ (peptide),"maximal inhibition of electrically induced contractions of the mouse vas deferens, NOP(+/+) tissues",[5],71%
same,"potency (pEC50), inhibition of electrically induced contractions of the mouse vas deferens, NOP(+/+) tissues",[5],7.59 pEC50
nociceptin/orphanin FQ [N/OFQ],potency (pEC50) for inhibition of electrically induced contractions,[3],7.59 (7.41–7.77)
same,maximal inhibition of electrically induced contractions,[3],71 ± 4%
same,kinetics of action in mVD (in words),[3]; onset and reversibility upon washout,fully and rapidly reversible upon washout
same,effect in mVD tissues from NOP(−/−) mice (in words),[4],completely inactive
same,"mice that lost the RR, 10 nmol","[6]; CD-1 mice, N = 8–10 per group",fewer than half
same,duration of action on RR (in words),[6]; mice that lost the RR,short-lasting action; also recorded: few minutes
FGGFTGARKSARKCANQ-NH2 (also: homodimer: Cys14-Cys14 disulfide to second copy) [[[Cys^14]N/OFQ-NH2]2],"pEC50, NOP–G protein interaction (BRET, membranes of HEK293 cells with NOP-RLuc and Gβ1-RGFP)",NOP-RLuc,9.91 pEC50
same,"E max, NOP–G protein interaction (BRET), normalised to N/OFQ-NH2 (E max = 1)",NOP-RLuc; scale: fraction of the maximal effect of N/OFQ-NH2,0.8
same,"E max, Ca^2+ mobilization in CHO cells with human NOP and Gαqi5 (% over baseline)",[7],241
same,"pEC50, Ca^2+ mobilization in CHO cells with human NOP and Gαqi5",[7],9.14 pEC50
same,"pEC50, inhibition of electrically induced contractions of the mouse vas deferens, NOP(+/+) tissues",[5],6.79 pEC50
